Measurements: patent publication US20190315806A1, “POLYMYXIN DERIVATIVE, PREPARATION METHOD AND APPLICATION THEREOF” (priority 2016, published 2019)
≈ marks a conversion by molar mass, not a printed value. Where a SMILES comes first, the peptide text is derived from it. Bridges are numbered along the chain shown (N, C = ends). [ ]: non-standard residue; d: D form. The star is where a group is joined. dPhe(4-tBu) = CC(C)(C)c1ccc(C[C@@H](N)C(=O)O)cc1; dPhe(4-CF3) = N[C@H](Cc1ccc(C(F)(F)F)cc1)C(=O)O; dBpa = N[C@H](Cc1ccc(C(=O)c2ccccc2)cc1)C(=O)O; dPhe(3-Cl) = N[C@H](Cc1cccc(Cl)c1)C(=O)O; dPhe(4-Me) = Cc1ccc(C[C@@H](N)C(=O)O)cc1; X2 = CC[C@H](C)CCCCC(=O)*; dDab = NCC[C@@H](N)C(=O)O; Octanoyl = CCCCCCCC(=O)*; Dab = NCC[C@H](N)C(=O)O

Key:
Format in all cases: cell-based
[1] = test system: Acinetobacter baumannii ATCC 19606; conditions: ATCC 19606
Procedure: (§1) The minimum inhibitory concentration (MIC) was determined by means of dish double dilution method using a Multipoint inoculator according to the CLSI recommended method. The compounds of the present invention (for example, the compounds prepared in the Embodiments) and the reference substances were diluted twice each time with the broth into various desired concentrations, and appropriate amounts were added to the dishes. Agar medium is melted, and then quantitatively injected into the dish containing the drug solution, and mixed. The final concentrations of the compounds of the invention (e.g., the compounds prepared in the Embodiments) and the controls were 0.03, 0.06, 0.125, 0.25 . . . 128 μg/mL, respectively. The test bacteria were cultured overnight with nutrient broth, brain heart infusion or HTM broth. During the tests, the bacterial solutions were diluted appropriately, and the test bacteria (inoculation amount 10^4 CFU/dot) were inoculated on the surface of the drug-containing agar by a multi-point inoculator. After drying, the bacterial was incubated for 18 to 24 hours at 35° C., the results were observed, the minimum concentrations of the compounds of the present invention (for example, the compounds prepared in the Embodiments) and the controls contained in the dishes with no growth of colonies were MICs.
(§2) The strains used in the antibacterial activity experiments were from the American Type Culture Collection (ATCC) and clinical isolates.
(§3) The strains used for the experiments on antibacterial activity included Escherichia coli ATCC 25922, Klebsiella pneumoniae ATCC BAA-2146 (NDM-1), Pseudomonas aeruginosa ATCC 27853, Acinetobacter baumannii ATCC 19606 and Staphylococcus epidermidis ATCC 12228.
(§4) Tested samples: polymyxin derivatives prepared according to the technical scheme of the present invention;
(§5) Controls: polymyxin B sulfate and colistin (polymyxin E sulfate).

[2] = test system: Escherichia coli ATCC 25922; conditions: ATCC 25922
Procedure: as §1, §2, §3, §4, §5

[3] = test system: Pseudomonas aeruginosa ATCC 27853; conditions: ATCC 27853
Procedure: as §1, §2, §3, §4, §5

[4] = test system: Staphylococcus epidermidis ATCC 12228; conditions: ATCC 12228
Procedure: as §1, §2, §3, §4, §5

[5] = test system: Klebsiella pneumoniae ATCC BAA-2146 (NDM-1); experiment: Antibacterial activity, MIC by dish double dilution method; conditions: ATCC BAA-2146
Procedure: as §1, §2, §3, §4, §5

| Structure (SMILES) | MIC A. baumannii ATCC 19606 [1] | MIC E. coli ATCC 25922 [2] | MIC P. aeruginosa ATCC 27853 [3] | MIC S. epidermidis ATCC 12228 [4] | MIC K. pneumoniae ATCC BAA-2146 (NDM-1) [5] |
| --- | --- | --- | --- | --- | --- |
| CC[C@H](C)CCCCC(=O)N[C@@H](CCN)C(=O)N[C@H](C(=O)N[C@@H](CCN)C(=O)N[C@H]1CCNC(=O)[C@H]([C@@H](C)O)NC(=O)[C@H](CCN)NC(=O)[C@H](CCN)NC(=O)[C@H](CC(C)C)NC(=O)[C@@H](Cc2cccc(Cl)c2)NC(=O)[C@H](CCN)NC1=O)[C@@H](C)O [Compound 19, (S)-6-methyloctanoyl-Dab-Thr-Dab-ring(4-10)[Dab-Dab-D-Phe(3-Cl)-Lue-Dab-Dab-Thr]] (X2-[Dab]T[Dab][Dab][Dab][dPhe(3-Cl)]L[Dab][Dab]T; lactam 4-C) | 0.5 µg/mL (≈ 0.404 µM) | 1 µg/mL (≈ 0.808 µM) | 2 µg/mL (≈ 1.62 µM) | 4 µg/mL (≈ 3.23 µM) | 2 µg/mL (≈ 1.62 µM) |
| CC[C@H](C)CCCCC(=O)N[C@@H](CCN)C(=O)N[C@H](C(=O)N[C@@H](CCN)C(=O)N[C@H]1CCNC(=O)[C@H]([C@@H](C)O)NC(=O)[C@H](CCN)NC(=O)[C@H](CCN)NC(=O)[C@H](CC(C)C)NC(=O)[C@@H](Cc2ccc(C(F)(F)F)cc2)NC(=O)[C@H](CCN)NC1=O)[C@@H](C)O [Compound 23, (S)-6-methyloctanoyl-Dab-Thr-Dab-ring(4-10)[Dab-Dab-D-Phe(4-CF3)-Lue-Dab-Dab-Thr]] (X2-[Dab]T[Dab][Dab][Dab][dPhe(4-CF3)]L[Dab][Dab]T; lactam 4-C) | 1 µg/mL (≈ 0.786 µM) | 1 µg/mL (≈ 0.786 µM) | 2 µg/mL (≈ 1.57 µM) | 8 µg/mL (≈ 6.29 µM) | 2 µg/mL (≈ 1.57 µM) |
| CC[C@H](C)CCCCC(=O)N[C@@H](CCN)C(=O)N[C@H](C(=O)N[C@@H](CCN)C(=O)N[C@H]1CCNC(=O)[C@H]([C@@H](C)O)NC(=O)[C@H](CCN)NC(=O)[C@H](CCN)NC(=O)[C@H](CC(C)C)NC(=O)[C@@H](Cc2ccc(OC)cc2)NC(=O)[C@H](CCN)NC1=O)[C@@H](C)O [Compound 24, (S)-6-methyloctanoyl-Dab-Thr-Dab-ring(4-10)[Dab-Dab-D-Phe(4-OCH3)-Lue-Dab-Dab-Thr]] (X2-[Dab]T[Dab][Dab][Dab][dY](Me)L[Dab][Dab]T; lactam 4-C) | 1 µg/mL (≈ 0.811 µM) | 1 µg/mL (≈ 0.811 µM) | 2 µg/mL (≈ 1.62 µM) | 16 µg/mL (≈ 13 µM) | 2 µg/mL (≈ 1.62 µM) |
| CCOc1ccc(C[C@H]2NC(=O)[C@H](CCN)NC(=O)[C@@H](NC(=O)[C@H](CCN)NC(=O)[C@@H](NC(=O)[C@H](CCN)NC(=O)CCCC[C@@H](C)CC)[C@@H](C)O)CCNC(=O)[C@H]([C@@H](C)O)NC(=O)[C@H](CCN)NC(=O)[C@H](CCN)NC(=O)[C@H](CC(C)C)NC2=O)cc1 [Compound 25, (S)-6-methyloctanoyl-Dab-Thr-Dab-ring(4-10)[Dab-Dab-D-Phe(4-OEt)-Lue-Dab-Dab-Thr]] (X2-[Dab]T[Dab][Dab][Dab][dY](Et)L[Dab][Dab]T; lactam 4-C) | 2 µg/mL (≈ 1.6 µM) | 1 µg/mL (≈ 0.802 µM) | 2 µg/mL (≈ 1.6 µM) | 16 µg/mL (≈ 12.8 µM) | 2 µg/mL (≈ 1.6 µM) |
| CC[C@H](C)CCCCC(=O)N[C@@H](CCN)C(=O)N[C@H](C(=O)N[C@@H](CCN)C(=O)N[C@H]1CCNC(=O)[C@H]([C@@H](C)O)NC(=O)[C@H](CCN)NC(=O)[C@H](CCN)NC(=O)[C@H](CC(C)C)NC(=O)[C@@H](Cc2ccc(C)cc2)NC(=O)[C@H](CCN)NC1=O)[C@@H](C)O [Compound 26, (S)-6-methyloctanoyl-Dab-Thr-Dab-ring(4-10)[Dab-Dab-D-Phe(4-CH3)-Lue-Dab-Dab-Thr]] (X2-[Dab]T[Dab][Dab][Dab][dPhe(4-Me)]L[Dab][Dab]T; lactam 4-C) | 0.5 µg/mL (≈ 0.411 µM) | 1 µg/mL (≈ 0.821 µM) | 2 µg/mL (≈ 1.64 µM) | 8 µg/mL (≈ 6.57 µM) | 2 µg/mL (≈ 1.64 µM) |
| CC[C@H](C)CCCCC(=O)N[C@@H](CCN)C(=O)N[C@H](C(=O)N[C@@H](CCN)C(=O)N[C@H]1CCNC(=O)[C@H]([C@@H](C)O)NC(=O)[C@H](CCN)NC(=O)[C@H](CCN)NC(=O)[C@H](CC(C)C)NC(=O)[C@@H](Cc2ccc(C(C)(C)C)cc2)NC(=O)[C@H](CCN)NC1=O)[C@@H](C)O [Compound 27, (S)-6-methyloctanoyl-Dab-Thr-Dab-ring(4-10)[Dab-Dab-D-Phe(4-tBu)-Lue-Dab-Dab-Thr]] (X2-[Dab]T[Dab][Dab][Dab][dPhe(4-tBu)]L[Dab][Dab]T; lactam 4-C) | 8 µg/mL (≈ 6.35 µM) | 2 µg/mL (≈ 1.59 µM) | 4 µg/mL (≈ 3.18 µM) | 8 µg/mL (≈ 6.35 µM) | 4 µg/mL (≈ 3.18 µM) |
| CC[C@H](C)CCCCC(=O)N[C@@H](CCN)C(=O)N[C@H](C(=O)N[C@@H](CCN)C(=O)N[C@H]1CCNC(=O)[C@H]([C@@H](C)O)NC(=O)[C@H](CCN)NC(=O)[C@H](CCN)NC(=O)[C@H](CC(C)C)NC(=O)[C@@H](Cc2ccc(C(=O)c3ccccc3)cc2)NC(=O)[C@H](CCN)NC1=O)[C@@H](C)O [Compound 29, (S)-6-methyloctanoyl-Dab-Thr-Dab-ring(4-10)[Dab-Dab-D-Phe(4-benzoyl)-Lue-Dab-Dab-Thr]] (X2-[Dab]T[Dab][Dab][Dab][dBpa]L[Dab][Dab]T; lactam 4-C) | 1 µg/mL (≈ 0.765 µM) | 2 µg/mL (≈ 1.53 µM) | 4 µg/mL (≈ 3.06 µM) | 16 µg/mL (≈ 12.2 µM) | 2 µg/mL (≈ 1.53 µM) |
| CCCCCCCC(=O)N[C@@H](CCN)C(=O)N[C@H](C(=O)N[C@H](CCN)C(=O)N[C@H]1CCNC(=O)[C@H]([C@@H](C)O)NC(=O)[C@H](CCN)NC(=O)[C@H](CCN)NC(=O)[C@H]([C@@H](C)O)NC(=O)[C@@H](CC(C)C)NC(=O)[C@H](CCN)NC1=O)[C@@H](C)O [Compound 32, octanoyl-Dab-Thr-D-Dab-ring(4-10)[Dab-Dab-D-Leu-Thr-Dab-Dab-Thr]] (Octanoyl-[Dab]T[dDab][Dab][Dab][dL]T[Dab][Dab]T; lactam 4-C) | 0.5 µg/mL (≈ 0.437 µM) | 0.5 µg/mL (≈ 0.437 µM) | 1 µg/mL (≈ 0.875 µM) | >128 µg/mL | 0.5 µg/mL (≈ 0.437 µM) |
| CCCCCCCC(=O)N[C@@H](CCN)C(=O)N[C@H](C(=O)N[C@@H](CO)C(=O)N[C@H]1CCNC(=O)[C@H]([C@@H](C)O)NC(=O)[C@H](CCN)NC(=O)[C@H](CCN)NC(=O)[C@H](CC(C)C)NC(=O)[C@@H](Cc2ccccc2)NC(=O)[C@H](CCN)NC1=O)[C@@H](C)O [Compound 54, octanoyl-Dab-Thr-Ser-ring(4-10)[Dab-Dab-D-Phe-Leu-Dab-Dab-Thr]] (Octanoyl-[Dab]TS[Dab][Dab][dF]L[Dab][Dab]T; lactam 4-C) | 0.5 µg/mL (≈ 0.425 µM) | 0.5 µg/mL (≈ 0.425 µM) | 1 µg/mL (≈ 0.85 µM) | 64 µg/mL (≈ 54.4 µM) | 1 µg/mL (≈ 0.85 µM) |
